Like-named read-outs stand apart in the source and are kept apart here.
Key:
[1] = molecular target: T1, PI3Kδ (Homo sapiens, UniProt O00329); assay: In vitro enzyme assay, residual ATP bioluminescence; assay type: biochemical
T1 construct: Full length p110 subunits of PI3k α, β and δ; polyHis (N); made in house; host or cells: Sf9 insect cells (baculovirus)
Protocol: Full length p110 subunits of PI3k α, β and δ, N-terminally labeled with polyHis tag, were coexpressed with p85 with Baculo virus expression vectors in sf9 insect cells. P110/p85 heterodimers were purified by sequential Ni-NTA, Q-HP, Superdex-100 chromatography. Purified α, β and δ isozymes were stored at −20° C. in 20 mM Tris, pH 8, 0.2M NaCl, 50% glycerol, 5 mM DTT, 2 mM Na cholate. Truncated PI3Kγ, residues 114-1102, N-terminally labeled with polyHis tag, was expessed with Baculo virus in Hi5 insect cells. The γ isozyme was purified by sequential Ni-NTA, Superdex-200, Q-HP chromatography. The γ isozyme was stored frozen at −80° C. in NaH2PO4, pH 8, 0.2M NaCl, 1% ethylene glycol, 2 mM β-mercaptoethanol.
Assays were performed in 25 μL with the above final concentrations of components in white polyproplyene plates (Costar 3355). Phospatidyl inositol phosphoacceptor, PtdIns(4,5)P2 P4508, was from Echelon Biosciences. The ATPase activity of the alpha and gamma isozymes was not greatly stimulated by PtdIns(4,5)P2 under these conditions and was therefore omitted from the assay of these isozymes. Test compounds were dissolved in dimethyl sulfoxide and diluted with three-fold serial dilutions. The compound in DMSO (1 μL) was added per test well, and the inhibition relative to reactions containing no compound, with and without enzyme was determined. After assay incubation at room temperature, the reaction was stopped and residual ATP determined by addition of an equal volume of a commercial ATP bioluminescence kit (Perkin Elmer EasyLite) according to the manufacturer's instructions, and detected using a AnalystGT luminometer.

[2] = system: model of systemic lupus erythematosis; conditions: in vivo; cited from earlier work
[3] = system: mouse model of rheumatoid arthritis; conditions: in vivo; cited from earlier work
[4] = system: protein kinases; conditions: cited from earlier work
[5] = system: passive cutaneous anaphylaxis (PCA); conditions: absence of functional delta (compound or p110δ D910A mice); cited from earlier work
[6] = system: ovalbumin-induced airway inflammation; conditions: cited from earlier work
[7] = molecular target: T2, p110δ (Homo sapiens, UniProt O00329); conditions: cited from earlier work
T2 sequence (O00329 1-1044): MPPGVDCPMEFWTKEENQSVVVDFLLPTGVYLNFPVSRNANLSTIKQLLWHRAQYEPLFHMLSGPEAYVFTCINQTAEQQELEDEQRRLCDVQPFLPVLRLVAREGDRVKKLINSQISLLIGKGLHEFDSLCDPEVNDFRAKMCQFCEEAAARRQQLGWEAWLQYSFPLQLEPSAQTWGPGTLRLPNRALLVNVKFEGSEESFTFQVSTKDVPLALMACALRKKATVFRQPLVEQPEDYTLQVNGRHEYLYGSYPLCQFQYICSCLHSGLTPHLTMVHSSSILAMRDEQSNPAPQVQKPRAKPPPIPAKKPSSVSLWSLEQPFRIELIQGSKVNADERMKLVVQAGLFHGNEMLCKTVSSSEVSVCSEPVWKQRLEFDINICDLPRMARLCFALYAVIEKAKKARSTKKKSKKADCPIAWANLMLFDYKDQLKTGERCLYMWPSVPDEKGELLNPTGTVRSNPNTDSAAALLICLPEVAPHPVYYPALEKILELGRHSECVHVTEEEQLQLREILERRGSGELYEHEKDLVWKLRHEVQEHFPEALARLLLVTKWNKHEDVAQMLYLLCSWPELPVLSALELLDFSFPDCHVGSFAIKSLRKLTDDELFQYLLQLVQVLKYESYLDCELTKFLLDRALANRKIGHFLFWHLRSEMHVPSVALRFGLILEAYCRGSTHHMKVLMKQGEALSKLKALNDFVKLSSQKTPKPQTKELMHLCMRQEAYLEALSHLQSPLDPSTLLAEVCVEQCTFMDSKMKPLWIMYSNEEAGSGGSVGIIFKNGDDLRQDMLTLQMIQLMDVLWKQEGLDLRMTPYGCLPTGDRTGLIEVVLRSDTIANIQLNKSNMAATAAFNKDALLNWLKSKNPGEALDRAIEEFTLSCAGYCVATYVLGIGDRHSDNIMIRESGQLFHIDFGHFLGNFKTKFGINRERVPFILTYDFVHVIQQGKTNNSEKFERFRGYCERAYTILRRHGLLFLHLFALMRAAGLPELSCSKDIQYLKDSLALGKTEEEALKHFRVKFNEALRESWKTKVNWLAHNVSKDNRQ

T1 sequence (P27986 whole entry partner, one chain of several): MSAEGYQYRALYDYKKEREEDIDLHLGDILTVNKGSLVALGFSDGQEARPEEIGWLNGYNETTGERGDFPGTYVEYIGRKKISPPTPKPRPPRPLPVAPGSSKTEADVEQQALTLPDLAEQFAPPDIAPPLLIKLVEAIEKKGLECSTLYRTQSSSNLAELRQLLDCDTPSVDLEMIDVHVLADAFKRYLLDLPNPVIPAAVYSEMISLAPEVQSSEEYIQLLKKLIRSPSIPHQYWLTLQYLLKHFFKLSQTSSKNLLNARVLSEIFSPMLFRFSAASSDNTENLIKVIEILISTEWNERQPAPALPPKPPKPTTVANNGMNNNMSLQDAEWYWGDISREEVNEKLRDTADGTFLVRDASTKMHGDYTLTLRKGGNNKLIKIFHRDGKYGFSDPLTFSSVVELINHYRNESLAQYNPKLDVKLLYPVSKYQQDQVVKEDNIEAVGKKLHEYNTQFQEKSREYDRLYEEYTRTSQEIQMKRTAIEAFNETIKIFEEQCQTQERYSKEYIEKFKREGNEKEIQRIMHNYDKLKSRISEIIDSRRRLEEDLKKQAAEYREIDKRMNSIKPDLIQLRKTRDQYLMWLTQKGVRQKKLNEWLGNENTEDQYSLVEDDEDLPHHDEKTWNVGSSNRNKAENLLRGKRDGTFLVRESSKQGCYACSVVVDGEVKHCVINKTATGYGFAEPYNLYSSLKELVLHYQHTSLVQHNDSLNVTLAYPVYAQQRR

`Cc1cccc2cc(CNc3nc(N)ncc3Cl)c(-c3ccccc3Cl)nc12` [Example 1, 5-Chloro-N4-((2-(2-chlorophenyl)-8-methylquinolin-3-yl)methyl)pyrimidine-2,4-diamine] gave an IC50 ([1]; read-out: PI3Kδ IC50) of 165 nM.
In the case of `O=C1NC(=O)/C(=C\c2ccc3nccnc3c2)S1` [AS 605240], the “onset of disease in a model of systemic lupus erythematosis” value [2] is listed as “delay onset of disease” and the “efficacy in a mouse model of rheumatoid arthritis” value [3] is listed as “efficacious”.
`NC(=O)c1cc(NS(=O)(=O)c2cc3cccc(Cl)c3nc2-c2ccccc2Cl)ccn1` [Example 7, 4-(8-chloro-2-(2-chlorophenyl)quinoline-3-sulfonamido)picolinamide] gave an IC50 ([1]; table after the in vitro enzyme assays, isoform and unit inferred, read-out: IC50) of over 40000 nM.
For `Cc1cccc2cc(CNc3nc(N)ncc3C(F)(F)F)c(-c3ccccc3Cl)nc12` [Example 3, N4-((2-(2-chlorophenyl)-8-methylquinolin-3-yl)methyl)-5-(trifluoromethyl)pyrimidine-2,4-diamine], the IC50 ([1]; read-out: PI3Kδ IC50) was 127 nM.
In the case of `Cc1ccccc1-n1c(Cn2cnc3c(N)ncnc32)nc2cccc(C)c2c1=O` [IC87114], the “activity against any protein kinases tested” value [4] is listed as “no activity”, the “passive cutaneous anaphylaxis (PCA)” value [5] is listed as “significantly reduced” and the “inflammation and disease in a murine model of asthma” value [6] is listed as “significantly ameliorate inflammation and disease”. For the same molecule, the “inhibition of p110δ” value [7] was “high nanomolar range (triple digit)”.
Work on `Cc1cccc2cc(CNc3ncc(C(F)(F)F)c(N)n3)c(-c3ccccc3Cl)nc12` [Example 4, N2-((2-(2-chlorophenyl)-8-methylquinolin-3-yl)methyl)-5-(trifluoromethyl)pyrimidine-2,4-diamine] yielded an IC50 ([1]; read-out: PI3Kδ IC50) of 2820 nM.
`Nc1cc(NCc2cc3cccc(Cl)c3nc2-c2ccccc2Cl)ncn1` [Example 2, N4-((8-Chloro-2-(2-chlorophenyl)quinolin-3-yl)-methyl)pyrimidine-4,6-diamine] gave an IC50 ([1]; read-out: PI3Kδ IC50) of 6870 nM.
